# Experimental data as given in ChEMBL document CHEMBL4804286, “3-amino-4-(4-(4 (dimethylcarbamoyl) phenyl)-1,4-diazepan-1-yl) thieno [2,3-b] pyridine-2-carboxamide for use in cancer therapy and formulations comprising the same” (2020).
# Where “and” joins values, the source holds several entries; their conditions need not be identical. Identical values can stand only once.
# Columns and labels:
# [1] = target: SRSF protein kinase 2 (Homo sapiens) (UniProt P78362); experiment: Inhibition of human SRPK2 assessed as percent of control at 2000 nM by KINOMEscan assay relative to control; parameters: scale not given: the % may be the effect or the level left
# [2] = target: Serine/threonine-protein kinase Nek4 (Homo sapiens) (UniProt P51957); experiment: Inhibition of human NEK4 assessed as percent of control at 2000 nM by KINOMEscan assay relative to control; parameters: scale not given: the % may be the effect or the level left
# [3] = target: Phosphatidylinositol 4,5-bisphosphate 3-kinase catalytic subunit gamma isoform (Homo sapiens) (UniProt P48736); experiment: Inhibition of human PIK3CG assessed as percent of control at 2000 nM by KINOMEscan assay relative to control; parameters: scale not given: the % may be the effect or the level left
# [4] = target: Cyclin-dependent kinase 4 (Homo sapiens) (UniProt P11802); experiment: Inhibition of human CDK4 assessed as percent of control at 2000 nM by KINOMEscan assay relative to control; parameters: scale not given: the % may be the effect or the level left
# [5] = target: Cyclin-dependent kinase 14 (Homo sapiens) (UniProt O94921); experiment: Inhibition of human PFTK1 assessed as percent of control at 2000 nM by KINOMEscan assay relative to control; parameters: scale not given: the % may be the effect or the level left
# Chain of Cyclin-dependent kinase 14 (Homo sapiens) (O94921 whole entry, canonical isoform): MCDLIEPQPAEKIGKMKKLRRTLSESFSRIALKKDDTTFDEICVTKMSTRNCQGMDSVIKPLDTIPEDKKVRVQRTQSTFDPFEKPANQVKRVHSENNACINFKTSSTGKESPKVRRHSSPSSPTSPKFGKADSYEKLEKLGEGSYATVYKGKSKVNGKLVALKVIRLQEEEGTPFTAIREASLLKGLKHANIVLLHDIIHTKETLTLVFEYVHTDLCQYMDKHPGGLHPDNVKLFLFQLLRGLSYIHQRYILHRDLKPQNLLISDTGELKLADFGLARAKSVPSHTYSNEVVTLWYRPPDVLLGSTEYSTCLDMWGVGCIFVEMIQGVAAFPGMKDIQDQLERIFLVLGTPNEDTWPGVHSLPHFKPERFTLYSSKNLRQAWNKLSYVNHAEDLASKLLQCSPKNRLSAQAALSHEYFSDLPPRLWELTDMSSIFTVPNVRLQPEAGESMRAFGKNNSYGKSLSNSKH
# [6] = test system: Phosphatidylinositol 4,5-bisphosphate 3-kinase catalytic subunit alpha isoform (Homo sapiens), P42336 [E545A]; experiment: Inhibition of human PIK3CA E545A mutant assessed as percent of control at 2000 nM by KINOMEscan assay relative to control; parameters: scale not given: the % may be the effect or the level left
# [7] = target: Serine/threonine-protein kinase PAK 5 (Homo sapiens) (UniProt Q9P286); experiment: Inhibition of human PAK7 assessed as percent of control at 2000 nM by KINOMEscan assay relative to control; parameters: scale not given: the % may be the effect or the level left
# Chain of Serine/threonine-protein kinase PAK 5 (Homo sapiens) (Q9P286 whole entry, looked up): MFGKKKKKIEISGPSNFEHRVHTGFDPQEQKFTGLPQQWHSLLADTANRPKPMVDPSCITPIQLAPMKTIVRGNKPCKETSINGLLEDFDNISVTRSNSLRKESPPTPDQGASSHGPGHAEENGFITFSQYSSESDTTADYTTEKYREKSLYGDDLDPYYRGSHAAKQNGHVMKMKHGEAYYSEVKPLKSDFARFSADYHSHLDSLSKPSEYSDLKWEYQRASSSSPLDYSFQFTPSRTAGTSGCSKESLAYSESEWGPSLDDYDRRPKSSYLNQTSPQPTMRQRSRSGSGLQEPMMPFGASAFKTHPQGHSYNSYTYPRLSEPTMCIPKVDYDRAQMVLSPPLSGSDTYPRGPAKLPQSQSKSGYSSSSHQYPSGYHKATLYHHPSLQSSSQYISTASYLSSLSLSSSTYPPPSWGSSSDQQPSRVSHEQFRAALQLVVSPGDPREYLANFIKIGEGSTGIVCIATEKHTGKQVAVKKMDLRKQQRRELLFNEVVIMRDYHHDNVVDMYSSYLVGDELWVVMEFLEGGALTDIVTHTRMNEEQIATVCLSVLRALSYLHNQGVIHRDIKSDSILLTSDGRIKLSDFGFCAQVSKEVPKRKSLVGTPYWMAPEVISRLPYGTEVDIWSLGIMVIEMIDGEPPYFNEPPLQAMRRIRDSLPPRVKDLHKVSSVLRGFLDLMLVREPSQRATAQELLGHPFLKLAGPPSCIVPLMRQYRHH
# [8] = test system: Proto-oncogene tyrosine-protein kinase receptor Ret (Homo sapiens), P07949 [M918T]; experiment: Inhibition of human RET M918T mutant assessed as percent of control at 2000 nM by KINOMEscan assay relative to control; parameters: scale not given: the % may be the effect or the level left
# [9] = target: Serine/threonine-protein kinase RIO2 (Homo sapiens) (UniProt Q9BVS4); details: INHIBITOR, dose 2000.0 nM
# Description: Inhibition of human RIOK2 at 2000 nM by KINOMEscan assay
# [10] = target: Serine/threonine-protein kinase Nek5 (Homo sapiens) (UniProt Q6P3R8); experiment: Inhibition of human NEK5 assessed as percent of control at 2000 nM by KINOMEscan assay relative to control; parameters: scale not given: the % may be the effect or the level left
# Chain of Serine/threonine-protein kinase Nek5 (Homo sapiens) (Q6P3R8 whole entry): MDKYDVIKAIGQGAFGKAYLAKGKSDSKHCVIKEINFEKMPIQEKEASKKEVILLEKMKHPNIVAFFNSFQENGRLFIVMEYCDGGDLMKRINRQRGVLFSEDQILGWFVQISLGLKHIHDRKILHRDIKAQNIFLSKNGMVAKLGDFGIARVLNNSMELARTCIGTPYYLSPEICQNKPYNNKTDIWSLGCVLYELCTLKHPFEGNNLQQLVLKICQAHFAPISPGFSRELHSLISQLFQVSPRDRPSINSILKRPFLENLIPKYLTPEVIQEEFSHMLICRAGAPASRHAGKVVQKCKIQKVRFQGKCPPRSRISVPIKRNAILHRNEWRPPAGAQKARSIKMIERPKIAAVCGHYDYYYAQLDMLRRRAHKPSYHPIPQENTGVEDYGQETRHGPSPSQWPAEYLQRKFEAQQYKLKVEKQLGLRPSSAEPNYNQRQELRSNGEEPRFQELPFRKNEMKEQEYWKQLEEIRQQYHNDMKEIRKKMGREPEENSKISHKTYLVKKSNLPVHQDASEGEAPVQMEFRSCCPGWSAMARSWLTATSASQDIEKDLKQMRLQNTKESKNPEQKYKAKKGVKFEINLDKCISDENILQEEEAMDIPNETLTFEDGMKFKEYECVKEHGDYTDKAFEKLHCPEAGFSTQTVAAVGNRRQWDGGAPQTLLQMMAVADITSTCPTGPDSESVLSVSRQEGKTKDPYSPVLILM
# [11] = target: Serine/threonine-protein kinase 3 (Homo sapiens) (UniProt Q13188); experiment: Inhibition of human MST2 assessed as percent of control at 2000 nM by KINOMEscan assay relative to control; parameters: scale not given: the % may be the effect or the level left
# [12] = target: Ribosomal protein S6 kinase alpha-1 (Homo sapiens) (UniProt Q15418); experiment: Inhibition of human C-terminal RSK1 kinase domain 2 assessed as percent of control at 2000 nM by KINOMEscan assay relative to control; parameters: scale not given: the % may be the effect or the level left
# Chain of Ribosomal protein S6 kinase alpha-1 (Homo sapiens) (Q15418 whole entry, the tested form may be a part): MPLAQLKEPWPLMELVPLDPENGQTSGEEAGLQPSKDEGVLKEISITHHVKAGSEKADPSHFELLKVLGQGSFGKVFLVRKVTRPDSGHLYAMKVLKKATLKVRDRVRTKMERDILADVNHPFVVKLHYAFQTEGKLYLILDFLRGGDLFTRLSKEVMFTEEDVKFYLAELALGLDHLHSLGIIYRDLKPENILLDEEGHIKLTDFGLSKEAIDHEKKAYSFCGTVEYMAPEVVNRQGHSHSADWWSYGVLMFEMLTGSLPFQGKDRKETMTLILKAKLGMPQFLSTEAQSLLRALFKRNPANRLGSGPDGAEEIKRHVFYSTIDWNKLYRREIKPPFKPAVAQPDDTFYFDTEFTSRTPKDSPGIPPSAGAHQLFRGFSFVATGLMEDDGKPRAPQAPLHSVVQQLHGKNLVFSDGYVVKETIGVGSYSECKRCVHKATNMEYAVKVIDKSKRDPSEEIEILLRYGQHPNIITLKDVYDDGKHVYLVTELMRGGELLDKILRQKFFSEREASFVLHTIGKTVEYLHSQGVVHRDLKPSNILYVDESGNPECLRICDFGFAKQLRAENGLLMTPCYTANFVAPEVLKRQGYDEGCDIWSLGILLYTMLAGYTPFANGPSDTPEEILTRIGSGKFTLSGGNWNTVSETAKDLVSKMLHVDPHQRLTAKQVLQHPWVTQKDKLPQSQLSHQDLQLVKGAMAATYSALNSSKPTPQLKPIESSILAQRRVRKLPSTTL
# [13] = target: Cyclin-dependent kinase 8/19 (Homo sapiens, UniProt P49336+Q9BWU1); details: ST-2
# Description: Inhibition of CDK8/CDK19 in ST2 cells by alkaline phosphatase activity assay
# [14] = target: Ephrin type-A receptor 5 (Homo sapiens) (UniProt P54756); experiment: Inhibition of human EPHA5 assessed as percent of control at 2000 nM by KINOMEscan assay relative to control; parameters: scale not given: the % may be the effect or the level left
# [15] = target: Mitogen-activated protein kinase kinase kinase kinase 5 (Homo sapiens) (UniProt Q9Y4K4); experiment: Inhibition of human MAP4K5 assessed as percent of control at 2000 nM by KINOMEscan assay relative to control; parameters: scale not given: the % may be the effect or the level left
# Chain of Mitogen-activated protein kinase kinase kinase kinase 5 (Homo sapiens) (Q9Y4K4 whole entry, looked up): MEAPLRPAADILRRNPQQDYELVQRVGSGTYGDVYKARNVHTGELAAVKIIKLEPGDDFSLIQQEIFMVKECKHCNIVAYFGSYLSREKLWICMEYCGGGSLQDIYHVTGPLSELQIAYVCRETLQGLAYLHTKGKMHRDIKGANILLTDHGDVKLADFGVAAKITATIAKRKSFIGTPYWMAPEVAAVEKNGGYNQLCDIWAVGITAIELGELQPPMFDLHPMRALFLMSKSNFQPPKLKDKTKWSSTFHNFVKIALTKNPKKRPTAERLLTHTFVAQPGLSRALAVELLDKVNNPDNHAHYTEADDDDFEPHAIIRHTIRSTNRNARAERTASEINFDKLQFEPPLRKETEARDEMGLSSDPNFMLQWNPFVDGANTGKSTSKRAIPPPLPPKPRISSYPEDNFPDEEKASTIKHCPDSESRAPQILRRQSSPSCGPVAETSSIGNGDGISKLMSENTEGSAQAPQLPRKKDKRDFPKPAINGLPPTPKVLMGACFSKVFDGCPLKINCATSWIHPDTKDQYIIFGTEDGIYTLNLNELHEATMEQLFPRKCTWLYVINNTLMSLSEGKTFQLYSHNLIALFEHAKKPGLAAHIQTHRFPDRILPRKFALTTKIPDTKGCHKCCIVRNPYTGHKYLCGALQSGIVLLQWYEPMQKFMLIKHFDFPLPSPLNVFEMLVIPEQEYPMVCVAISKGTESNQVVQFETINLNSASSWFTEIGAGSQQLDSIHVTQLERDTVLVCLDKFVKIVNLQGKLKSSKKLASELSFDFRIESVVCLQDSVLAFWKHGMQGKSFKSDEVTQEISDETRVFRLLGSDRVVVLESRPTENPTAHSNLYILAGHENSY
# [16] = test system: Epidermal growth factor receptor (Homo sapiens), P00533 [L858R,T790M]; experiment: Inhibition of human EGFR L858R/T790M double mutant assessed as percent of control at 2000 nM by KINOMEscan assay relative to control; parameters: scale not given: the % may be the effect or the level left
# [17] = test system: Serine/threonine-protein kinase B-raf (Homo sapiens), P15056 [V600E]; experiment: Inhibition of human BRAF V600E mutant assessed as percent of control at 2000 nM by KINOMEscan assay relative to control; parameters: scale not given: the % may be the effect or the level left
# [18] = target: RAC-gamma serine/threonine-protein kinase (Homo sapiens) (UniProt Q9Y243); experiment: Inhibition of human AKT3 assessed as percent of control at 2000 nM by KINOMEscan assay relative to control; parameters: scale not given: the % may be the effect or the level left
# [19] = target: Tyrosine-protein kinase FRK (Homo sapiens) (UniProt P42685); experiment: Inhibition of human FRK assessed as percent of control at 2000 nM by KINOMEscan assay relative to control; parameters: scale not given: the % may be the effect or the level left
# Chain of Tyrosine-protein kinase FRK (Homo sapiens) (P42685 whole entry): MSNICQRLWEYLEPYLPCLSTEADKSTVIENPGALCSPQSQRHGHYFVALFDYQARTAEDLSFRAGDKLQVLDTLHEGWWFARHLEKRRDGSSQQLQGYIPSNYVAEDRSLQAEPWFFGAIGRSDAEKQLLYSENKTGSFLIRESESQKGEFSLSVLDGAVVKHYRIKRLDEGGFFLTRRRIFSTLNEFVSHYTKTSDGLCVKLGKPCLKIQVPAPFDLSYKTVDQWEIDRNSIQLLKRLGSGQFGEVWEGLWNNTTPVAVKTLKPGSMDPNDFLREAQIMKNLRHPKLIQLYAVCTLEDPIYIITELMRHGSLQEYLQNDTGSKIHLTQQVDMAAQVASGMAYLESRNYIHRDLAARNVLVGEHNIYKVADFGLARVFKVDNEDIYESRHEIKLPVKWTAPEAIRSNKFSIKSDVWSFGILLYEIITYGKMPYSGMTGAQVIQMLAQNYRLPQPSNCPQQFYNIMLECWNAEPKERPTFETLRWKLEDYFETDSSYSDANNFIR
# [20] = target: Mitogen-activated protein kinase kinase kinase kinase 1 (Homo sapiens) (UniProt Q92918); experiment: Inhibition of human HPK1 assessed as percent of control at 2000 nM by KINOMEscan assay relative to control; parameters: scale not given: the % may be the effect or the level left
# Chain of Mitogen-activated protein kinase kinase kinase kinase 1 (Homo sapiens) (Q92918 whole entry, looked up): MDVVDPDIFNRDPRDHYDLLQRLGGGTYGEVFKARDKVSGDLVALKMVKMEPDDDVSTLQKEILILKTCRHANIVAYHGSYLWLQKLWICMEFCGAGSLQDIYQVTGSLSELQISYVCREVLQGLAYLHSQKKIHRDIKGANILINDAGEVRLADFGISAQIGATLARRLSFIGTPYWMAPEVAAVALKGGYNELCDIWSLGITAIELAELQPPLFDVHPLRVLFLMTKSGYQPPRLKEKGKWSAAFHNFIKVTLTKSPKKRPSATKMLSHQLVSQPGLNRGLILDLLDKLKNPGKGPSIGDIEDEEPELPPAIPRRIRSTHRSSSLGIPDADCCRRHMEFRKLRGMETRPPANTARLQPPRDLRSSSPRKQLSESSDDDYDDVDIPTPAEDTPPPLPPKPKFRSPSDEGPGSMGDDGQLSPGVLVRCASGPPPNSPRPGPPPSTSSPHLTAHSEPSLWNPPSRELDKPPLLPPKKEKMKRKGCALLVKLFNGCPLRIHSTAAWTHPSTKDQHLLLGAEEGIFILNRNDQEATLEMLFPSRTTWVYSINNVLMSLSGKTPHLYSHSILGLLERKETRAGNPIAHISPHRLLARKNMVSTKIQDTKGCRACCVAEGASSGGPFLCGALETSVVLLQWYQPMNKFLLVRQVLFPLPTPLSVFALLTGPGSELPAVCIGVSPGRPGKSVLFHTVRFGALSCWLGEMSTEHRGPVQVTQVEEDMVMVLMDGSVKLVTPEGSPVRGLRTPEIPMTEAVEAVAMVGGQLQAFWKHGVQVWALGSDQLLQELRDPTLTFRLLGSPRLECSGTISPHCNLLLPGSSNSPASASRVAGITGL
# [21] = target: Serine/threonine-protein kinase PAK 3 (Homo sapiens) (UniProt O75914); experiment: Inhibition of human PAK3 assessed as percent of control at 2000 nM by KINOMEscan assay relative to control; parameters: scale not given: the % may be the effect or the level left
# [22] = target: Mitogen-activated protein kinase kinase kinase kinase 4 (Homo sapiens) (UniProt O95819); experiment: Inhibition of human MAP4K4 assessed as percent of control at 2000 nM by KINOMEscan assay relative to control; parameters: scale not given: the % may be the effect or the level left
# [23] = target: Serine/threonine-protein kinase Sgk1 (Homo sapiens) (UniProt O00141); experiment: Inhibition of human SGK assessed as percent of control at 2000 nM by KINOMEscan assay relative to control; parameters: scale not given: the % may be the effect or the level left
# [24] = target: Ribosomal protein S6 kinase alpha-3 (Homo sapiens) (UniProt P51812); experiment: Inhibition of human C-terminal RSK2 kinase domain 2 assessed as percent of control at 2000 nM by KINOMEscan assay relative to control; parameters: scale not given: the % may be the effect or the level left
# [25] = target: Tyrosine-protein kinase TXK (Homo sapiens) (UniProt P42681); experiment: Inhibition of human TXK assessed as percent of control at 2000 nM by KINOMEscan assay relative to control; parameters: scale not given: the % may be the effect or the level left
# [26] = test system: Epidermal growth factor receptor (Homo sapiens), P00533 [UNDEFINED MUTATION]; experiment: Inhibition of human EGFR L747-T751del/Sins double mutant assessed as percent of control at 2000 nM by KINOMEscan assay relative to control; parameters: scale not given: the % may be the effect or the level left
# [27] = target: Cyclin-dependent kinase 15 (Homo sapiens) (UniProt Q96Q40); experiment: Inhibition of human PFTAIRE2 assessed as percent of control at 2000 nM by KINOMEscan assay relative to control; parameters: scale not given: the % may be the effect or the level left
# [28] = target: Glycogen synthase kinase-3 alpha (Homo sapiens) (UniProt P49840); experiment: Inhibition of human GSK3A assessed as percent of control at 2000 nM by KINOMEscan assay relative to control; parameters: scale not given: the % may be the effect or the level left; details: INHIBITOR
# [29] = test system: Fibroblast growth factor receptor 3 (Homo sapiens), P22607 [G697C]; experiment: Inhibition of human FGFR3 G697C mutant assessed as percent of control at 2000 nM by KINOMEscan assay relative to control; parameters: scale not given: the % may be the effect or the level left
# [30] = target: Activin receptor type-1-like (Homo sapiens) (UniProt P37023); experiment: Inhibition of human ACVRL1 assessed as percent of control at 2000 nM by KINOMEscan assay relative to control; parameters: scale not given: the % may be the effect or the level left
compound,measurement,setting,value
CN(C)C(=O)c1ccc(N2CCCN(c3ccnc4sc(C(N)=O)c(N)c34)CC2)cc1,Activity,[1],93% and 100%
same,Activity,[2],100% and 95%
same,Activity,[3],79% and 76%
same,Activity,[4],73% and 71%
same,Activity,[5],96% and 100%
same,Activity,[6],100% and 92%
same,Activity,[7],100% and 80%
same,Activity,[8],98%
same,inhibition,[9],> 65%
same,Activity,[10],94% and 100%
same,Activity,[11],100% and 84%
same,Activity,[12],100% and 86%
same,EC200,[13],31.9 nM
same,Activity,[14],89% and 96%
same,Activity,[15],100% and 97%
same,Activity,[16],100% and 87%
same,Activity,[17],100% and 84%
same,Activity,[18],97% and 100%
same,Activity,[19],100% and 97%
same,Activity,[20],98% and 100%
same,Activity,[21],80%
same,Activity,[21]; INHIBITOR,40%
same,Activity,[22],100% and 93%
same,Activity,[23],86% and 83%
same,Activity,[24],94% and 92%
same,Activity,[25],93% and 100%
same,Activity,[26],87% and 100%
same,Activity,[27],100% and 80%
same,Activity,[28],31% and 34%
same,Activity,[29],95% and 100%
same,Activity,[30],99% and 100%
